# Data as given in patent US6410034B1, “Dermal absorption-promoting agent” (Takasago International Corporation, priority 1998, dated 2002).
# “Also recorded” adds a separate entry of the source.
# Experiments:
# [1] = isosorbide dinitrate in an aqueous suspension; Fragrance Journal, p34, 1996-4; cited from earlier work
# skin of Yucatan Micropig [2] = experiment: Dermal permeation test of antipyrine (ANP), Example 1, water/ethanol samples, modified Franz diffusion cell; format: in vitro ADME; details: promoting agent dissolved in ethanol and combined with water, 37° C., 30 to 48 hours
# Text: (§1) A lipophilic agent indomethacin (IM) and a hydrophilic agent antipyrine (ANP) were used to compare the dermal absorption-promoting effect of p-menthane-3,8-diol (MDM: mixture of trans and cis forms) with those of l-menthol (LM) and 3-l-menthoxypropane-1,2-diol (MPD) together with a control.
# (§2) According to the formulations shown in Table 1 (IM) and Table 2 (ANP), each of the three dermal absorption-promoting agents was employed, dissolved in ethanol and combined with water to prepare a sample. The samples thus prepared were stored at 37° C. until use.
# (§3) A skin of Yucatan Micropig [5 month-old, male, NIPPON CHARLES RIVER (KK)] stored frozen at −80° C. was thawed at room temperature and, after removing an unwanted fat adhering to the skin, cut into pieces, each in about 2 cm square, which were subjected to a permeation test.
# (§4) In the permeation test, a diffusion cell of a modified Franz type (valid surface area: 1.1 cm^2, receptor phase: 16 ml) containing a phosphate buffer, pH7.1, was provided on the receptor phase side, which was stirred with a star-head magnet at 600 rpm with keeping at 37° C. […] A receptor phase fractionated was subjected to a high pressure liquid chromatography (HPLC) to quantify the drug which had permeated. […]
# (§5) IM and ANP were determined using an UV spectrophotometer model SPD-6A (SHIMADZU) at wavelengths of 254 nm and 245 nm, respectively. […]
# skin of Yucatan Micropig [3] = experiment: Dermal permeation test of IM, Example 3, water/1,3-butylene glycol samples, MDM, MPD and 1:1 combination; format: in vitro ADME; details: indomethacin 0.05 g, promoting agent 0.3 g total (combination 0.15 g + 0.15 g), water 6.0 ml / 1,3-BG 4.0 ml
# Description: as §3
# In the permeation test, a diffusion cell of a modified Franz type (valid surface area: 1.1 cm^2, receptor phase: 16 ml) containing a phosphate buffer, pH7.1, was provided on the receptor phase side, which was stirred with a star-head magnet at 600 rpm with keeping at 37° C. On the donor side, 0.5 ml of a sample solution was contained and closed with a glass ball in order to prevent the evaporation of the sample solution. At a predetermined time, an aliquot was sampled and an equal volume of a buffer solution was supplemented. A receptor phase fractionated was subjected to a high pressure liquid chromatography (HPLC) to quantify the drug which had permeated. The permeation test was continued over a period of 30 to 48 hours. […]
# skin of Yucatan Micropig [4] = experiment: Dermal permeation test of indomethacin (IM), Example 1, water/ethanol samples, modified Franz diffusion cell; format: in vitro ADME; details: indomethacin 0.05 g, promoting agent 0.3 g, water 6.0 ml / ethanol 4.0 ml, 37° C., 30 to 48 hours
# Text: as §1, §2, §3, §4, §5
# mosquito = details: known from prior art; cited from earlier work
# skin of Yucatan Micropig [5] = experiment: Dermal permeation test of IM, Example 2, water/1,3-butylene glycol samples; format: in vitro ADME; details: indomethacin 0.05 g, promoting agent 0.3 g, water 6.0 ml / 1,3-BG 4.0 ml
# Description: as §3
# In the permeation test, a diffusion cell of a modified Franz type (valid surface area: 1.1 cm^2, receptor phase: 16 ml) containing a phosphate buffer, pH7.1, was provided on the receptor phase side, which was stirred with a star-head magnet at 600 rpm with keeping at 37° C. On the donor side, 0.5 ml of a sample solution was contained and closed with a glass ball in order to prevent the evaporation of the sample solution. At a predetermined time, an aliquot was sampled and an equal volume of a buffer solution was supplemented. A receptor phase fractionated was subjected to a high pressure liquid chromatography (HPLC) to quantify the drug which had permeated. The permeation test was continued over a period of 30 to 48 hours.
# A lipophilic agent indomethacin (IM) was used to compare the dermal absorption-promoting effect of p-menthane-3,8-diol (MDM: mixture of trans and cis forms) with those of l-menthol (LM) together with a control.
# [6] = combined together with indomethacin; YAKUZAIGAKU vol.56 No.3 (1996), DDS Vol. 12 No. 2 (1997); cited from earlier work
structure (smiles),measurement,setting,value
"CC12CCC(CC1)C(C)(C)O2 [1,8-cineol]",promotion of dermal permeation of isosorbide dinitrate,[1],promoted greatly
"CC1CCC(C(C)(C)O)C(O)C1 (centres unmarked) [MDM, p-menthane-3,8-diol]","dermal permeation-promoting ability (cumulative permeation of ANP vs time, FIG. 2)",skin of Yucatan Micropig [2],"exhibited a dermal permeation-promoting ability, although the ability was not as high as that of LM and MPD; also recorded: promoted the dermal permeation of ANP"
same,"dermal permeation-promoting ability (cumulative permeation of ANP vs time, FIG. 2)","skin of Yucatan Micropig [2]; listed as p-menthane-3,8-diol",promoted the dermal permeation of both of lipophilic agent indomethacin and hydrophilic antipyrine
same,"dermal permeation-promoting ability (cumulative permeation of IM vs time, FIG. 4)",skin of Yucatan Micropig [3],higher than that of MPD
same,"dermal permeation-promoting ability (cumulative permeation of IM vs time, FIG. 1)",skin of Yucatan Micropig [4],not as high as that of LM but was higher than that of MPD; also recorded: promoted the dermal permeation of IM
same,"dermal permeation-promoting ability (cumulative permeation of IM vs time, FIG. 1)","skin of Yucatan Micropig [4]; listed as p-menthane-3,8-diol",promoted the dermal permeation of both of lipophilic agent indomethacin and hydrophilic antipyrine
same,repelling effect on a mosquito,mosquito,known to have a repelling effect on a mosquito
same,"dermal permeation-promoting ability (cumulative permeation of IM vs time, FIG. 3)",skin of Yucatan Micropig [5],"exhibited a dermal permeation-promoting ability, although the ability was not as high as that of LM; also recorded: promoted the dermal permeation of IM"
"CC1CCC(C(C)C)C(OCC(O)CO)C1 (stereo not drawn) [MPD, 3-l-menthoxypropane-1,2-diol]",promotion of dermal absorption of indomethacin,[6],somewhat lower than that of l-menthol; also recorded: promotes the dermal absorption of indomethacin
"CC(C)[C@@H]1CC[C@@H](C)C[C@H]1O [LM, l-menthol]",promotion of dermal permeation of isosorbide dinitrate,[1],promoted greatly
same,promotion of dermal absorption of indomethacin,[6],promotes the dermal absorption of indomethacin
